Reference: patent US20240090503A1, “FUNGICIDAL OXADIAZOLES AND THEIR MIXTURES” (FMC CORPORATION, priority 2020, published 2024)

Columns and labels:
[1] = tested on: Phakopsora pachyrhizi (the causal agent of Asian soybean rust); assay: Test A: preventive spray on soybean seedlings, Asian soybean rust, visual disease rating; format: in vivo; conditions: soybean seedlings
Description: (§1) General protocol for preparing test suspensions for Tests A-D: the test compounds were first dissolved in acetone in an amount equal to 3% of the final volume and then suspended at the desired concentration (in ppm) in acetone and purified water (50/50 mix by volume) containing 250 ppm of the surfactant PEG400 (polyhydric alcohol esters). The resulting test suspensions were then used in Tests A-D.
The test suspension was sprayed to the point of run-off on soybean seedlings. The following day the seedlings were inoculated with a spore suspension of Phakopsora pachyrhizi (the causal agent of Asian soybean rust) and incubated in a saturated atmosphere at 22° C. for 24 h and then moved to a growth chamber at 22° C. for 8 days, after which time visual disease ratings were made.
(§2) The test results for Tests A-C presented in Table A below for compounds of Formula 1 illustrate the fungicidal activity of component (a) contributing to the plant disease control utility of compositions comprising component (a) in combination with component (b) according to the present invention. In the Table, a rating of 100 indicates 100% disease control and a rating of 0 indicates no disease control (relative to the controls). A dash (-) indicates the compound was not tested. The test suspensions were sprayed at the concentration listed in the column “Rate in ppm”, unless otherwise indicated. An asterisk “*” next to the rating indicates a 250 ppm test suspension was used, a double asterisk “**” next to the rating indicates a 100 ppm test suspension was used, and a triple asterisk “***” next to the rating indicates a 50 ppm test suspension was used.

[2] = tested on: Puccinia recondita f. sp. tritici (the causal agent of wheat leaf rust); assay: Test C: preventive spray on wheat seedlings, wheat leaf rust, visual disease rating; format: in vivo; conditions: wheat seedlings
Description: as §1
The test suspension was sprayed to the point of run-off on wheat seedlings. The following day the seedlings were inoculated with a spore suspension of Puccinia recondita f. sp. tritici; (the causal agent of wheat leaf rust) and incubated in a saturated atmosphere at 20° C. for 24 h, and then moved to a growth chamber at 20° C. for 6 days, after which time visual disease ratings were made.
as §2

[3] = test suspension 10 ppm, 100 = 100% disease control, 0 = no control

Cc1nn(Cc2ccc(-c3noc(C(F)(F)F)n3)cc2)c2ccc(Br)cc12 [compound 51]
Test A disease control rating [1, 3]: 99%
Test C disease control rating ([2]; test suspension 10 ppm): 68%

Cc1c2cc(Br)ccc2nn1Cc1ccc(-c2noc(C(F)(F)F)n2)cc1 [compound 52]
Test A disease control rating [1, 3]: 99%
Test C disease control rating ([2]; test suspension 10 ppm): 80%

FC(F)(F)c1nc(-c2ccc(Cn3ncc4c(Cl)cc(Br)cc43)cc2)no1 [compound 53]
Test A disease control rating [1, 3]: 0%
Test C disease control rating ([2]; test suspension 10 ppm): 9%

FC(F)(F)c1nc(-c2ccc(Cn3cc4c(Cl)cc(Br)cc4n3)cc2)no1 [compound 54]
Test A disease control rating [1, 3]: 99%
Test C disease control rating ([2]; test suspension 10 ppm): 68%

O=C(O)c1cnn(Cc2ccc(-c3noc(C(F)(F)F)n3)cc2)c1 [compound 55]
Test A disease control rating [1, 3]: 100%
Test C disease control rating ([2]; test suspension 10 ppm): 99%

CNC(=O)c1cnn(Cc2ccc(-c3noc(C(F)(F)F)n3)cc2)c1 [compound 61]
Test A disease control rating [1, 3]: 100%
Test C disease control rating ([2]; test suspension 10 ppm): 100%

CN(C)C(=O)c1cnn(Cc2ccc(-c3noc(C(F)(F)F)n3)cc2)c1 [compound 62]
Test A disease control rating [1, 3]: 100%
Test C disease control rating ([2]; test suspension 10 ppm): 100%

CC(C)NC(=O)c1cnn(Cc2ccc(-c3noc(C(F)(F)F)n3)cc2)c1 [compound 63]
Test A disease control rating [1, 3]: 100%
Test C disease control rating ([2]; test suspension 10 ppm): 100%

C=CCNC(=O)c1cnn(Cc2ccc(-c3noc(C(F)(F)F)n3)cc2)c1 [compound 64]
Test A disease control rating [1, 3]: 100%
Test C disease control rating ([2]; test suspension 10 ppm): 100%

N#CCNC(=O)c1cnn(Cc2ccc(-c3noc(C(F)(F)F)n3)cc2)c1 [compound 65]
Test A disease control rating [1, 3]: 100%
Test C disease control rating ([2]; test suspension 10 ppm): 100%

CCOC(=O)c1c(C)nn(Cc2ccc(-c3noc(C(F)(F)F)n3)cc2)c1C [compound 66]
Test A disease control rating ([1]; test suspension 255 ppm): 100%
Test C disease control rating ([2]; test suspension 255 ppm): 100%

CCNC(=O)c1cnn(Cc2ccc(-c3noc(C(F)(F)F)n3)cc2)c1 [compound 67]
Test A disease control rating [1, 3]: 100%
Test C disease control rating ([2]; test suspension 10 ppm): 99%

CCCNC(=O)c1cnn(Cc2ccc(-c3noc(C(F)(F)F)n3)cc2)c1 [compound 68]
Test A disease control rating [1, 3]: 100%
Test C disease control rating ([2]; test suspension 10 ppm): 100%

O=C(NC1CC1)c1cnn(Cc2ccc(-c3noc(C(F)(F)F)n3)cc2)c1 [compound 69]
Test A disease control rating [1, 3]: 100%
Test C disease control rating ([2]; test suspension 10 ppm): 100%

FC(F)(F)c1nc(-c2ccc(Cn3ccc(Br)n3)s2)no1 [compound 72]
Test A disease control rating ([1]; test suspension 50 ppm): 99%
Test C disease control rating ([2]; test suspension 50 ppm): 100%

CCOC(=O)c1cc(C)n(Cc2ccc(-c3noc(C(F)(F)F)n3)s2)n1 [compound 73]
Test A disease control rating [1, 3]: 100%
Test C disease control rating ([2]; test suspension 10 ppm): 86%

N#Cc1c(Br)cnn1Cc1ccc(-c2noc(C(F)(F)F)n2)s1 [compound 77]
Test A disease control rating ([1]; test suspension 50 ppm): 100%
Test C disease control rating ([2]; test suspension 50 ppm): 100%

CC(C)(C)NC(=O)c1cnn(Cc2ccc(-c3noc(C(F)(F)F)n3)cc2)c1 [compound 78]
Test A disease control rating [1, 3]: 100%
Test C disease control rating ([2]; test suspension 10 ppm): 100%

CCOC(=O)c1cc(CC)n(Cc2ccc(-c3noc(C(F)(F)F)n3)cc2)n1 [compound 79]
Test A disease control rating [1, 3]: 100%
Test C disease control rating ([2]; test suspension 10 ppm): 68%

CCOC(=O)c1cc(C(C)C)n(Cc2ccc(-c3noc(C(F)(F)F)n3)cc2)n1 [compound 80]
Test A disease control rating [1, 3]: 100%
Test C disease control rating ([2]; test suspension 10 ppm): 68%

CCOC(=O)c1cc(CC)nn1Cc1ccc(-c2noc(C(F)(F)F)n2)cc1 [compound 81]
Test A disease control rating [1, 3]: 100%
Test C disease control rating ([2]; test suspension 10 ppm): 0%

CCOC(=O)c1cc(C(C)C)nn1Cc1ccc(-c2noc(C(F)(F)F)n2)cc1 [compound 82]
Test A disease control rating [1, 3]: 0%
Test C disease control rating ([2]; test suspension 10 ppm): 0%

FC(F)(F)c1nc(-c2ccc(Cn3ccc(Br)n3)cc2)no1 [compound 97]
Test A disease control rating ([1]; test suspension 50 ppm): 99%
Test C disease control rating ([2]; test suspension 50 ppm): 100%

CC(C)(C)c1ccn(Cc2ccc(-c3noc(C(F)(F)F)n3)cc2)n1 [compound 98]
Test A disease control rating ([1]; test suspension 50 ppm): 99%
Test C disease control rating ([2]; test suspension 50 ppm): 68%

Cc1nn(Cc2ccc(-c3noc(C(F)(F)F)n3)cc2)c2ccccc12 [compound 99]
Test A disease control rating [1, 3]: 100%
Test C disease control rating ([2]; test suspension 10 ppm): 68%

Cc1cccc2c1cnn2Cc1ccc(-c2noc(C(F)(F)F)n2)cc1 [compound 100]
Test A disease control rating [1, 3]: 100%
Test C disease control rating ([2]; test suspension 10 ppm): 86%

Cc1cccc2cnn(Cc3ccc(-c4noc(C(F)(F)F)n4)cc3)c12 [compound 101]
Test A disease control rating ([1]; test suspension 50 ppm): 100%
Test C disease control rating ([2]; test suspension 50 ppm): 100%

Cc1cccc2nn(Cc3ccc(-c4noc(C(F)(F)F)n4)cc3)cc12 [compound 102]
Test A disease control rating [1, 3]: 100%
Test C disease control rating ([2]; test suspension 10 ppm): 99%

Cc1cccc2cn(Cc3ccc(-c4noc(C(F)(F)F)n4)cc3)nc12 [compound 103]
Test A disease control rating [1, 3]: 100%
Test C disease control rating ([2]; test suspension 10 ppm): 97%

N#Cc1nn(Cc2ccc(-c3noc(C(F)(F)F)n3)cc2)c2ccccc12 [compound 104]
Test A disease control rating [1, 3]: 100%
Test C disease control rating ([2]; test suspension 10 ppm): 68%

N#Cc1cccc2c1cnn2Cc1ccc(-c2noc(C(F)(F)F)n2)cc1 [compound 105]
Test A disease control rating ([1]; test suspension 50 ppm): 100%
Test C disease control rating ([2]; test suspension 50 ppm): 100%

N#Cc1ccc2c(cnn2Cc2ccc(-c3noc(C(F)(F)F)n3)cc2)c1 [compound 106]
Test A disease control rating ([1]; test suspension 50 ppm): 100%
Test C disease control rating ([2]; test suspension 50 ppm): 100%

N#Cc1cccc2nn(Cc3ccc(-c4noc(C(F)(F)F)n4)cc3)cc12 [compound 107]
Test A disease control rating [1, 3]: 100%
Test C disease control rating ([2]; test suspension 10 ppm): 90%

N#Cc1ccc2nn(Cc3ccc(-c4noc(C(F)(F)F)n4)cc3)cc2c1 [compound 108]
Test A disease control rating ([1]; test suspension 50 ppm): 100%
Test C disease control rating ([2]; test suspension 50 ppm): 100%

CCOC(=O)c1cc(C)nn1Cc1ccc(-c2noc(C(F)(F)F)n2)cc1 [compound 109]
Test A disease control rating ([1]; test suspension 50 ppm): 100%
Test C disease control rating ([2]; test suspension 50 ppm): 77%

FC(F)(F)c1nc(-c2ccc(Cn3nc(Br)c4ccccc43)cc2)no1 [compound 112]
Test A disease control rating [1, 3]: 92%
Test C disease control rating ([2]; test suspension 10 ppm): 0%

FC(F)(F)c1nc(-c2ccc(Cn3nc4ccccc4c3Br)cc2)no1 [compound 113]
Test A disease control rating [1, 3]: 99%
Test C disease control rating ([2]; test suspension 10 ppm): 0%

Nc1ccc2c(cnn2Cc2ccc(-c3noc(C(F)(F)F)n3)cc2)c1 [compound 115]
Test A disease control rating [1, 3]: 98%
Test C disease control rating ([2]; test suspension 10 ppm): 95%

COc1ccc2c(C#N)n(Cc3ccc(-c4noc(C(F)(F)F)n4)cc3)nc2c1 [compound 121]
Test A disease control rating [1, 3]: 87%
Test C disease control rating ([2]; test suspension 10 ppm): 0%

COc1ccc2c(cnn2Cc2ccc(-c3noc(C(F)(F)F)n3)cc2)c1 [compound 126]
Test A disease control rating ([1]; test suspension 260 ppm): 100%
Test C disease control rating ([2]; test suspension 260 ppm): 100%

Cc1cc(C(F)(F)F)n(Cc2ccc(-c3noc(C(F)(F)F)n3)cc2)n1 [compound 127]
Test A disease control rating [1, 3]: 0%
Test C disease control rating ([2]; test suspension 10 ppm): 0%

COc1ccc2nn(Cc3ccc(-c4noc(C(F)(F)F)n4)cc3)cc2c1 [compound 131]
Test A disease control rating [1, 3]: 100%
Test C disease control rating ([2]; test suspension 10 ppm): 99%

FC(F)(F)c1nc(-c2ccc(Cn3ccc4ccncc43)cc2)no1 [compound 135]
Test A disease control rating [1, 3]: 96%
Test C disease control rating ([2]; test suspension 10 ppm): 0%

FC(F)(F)c1nc(-c2ccc(Cn3ccc4cnccc43)cc2)no1 [compound 137]
Test A disease control rating [1, 3]: 100%
Test C disease control rating ([2]; test suspension 10 ppm): 41%

O=C(O)c1cc(C(=O)O)n(Cc2ccc(-c3noc(C(F)(F)F)n3)cc2)n1 [compound 140]
Test A disease control rating [1, 3]: 0%
Test C disease control rating ([2]; test suspension 10 ppm): 0%
